The values that follow come from patent US5540861A (priority 1994, dated 1996).

The LD50 is the dose expected to kill half of the subjects tested.

The nature of data set [1]: in vivo. The settings on record: po.
For data set [2] the following is noted: in vivo.

Consider `CCCCCCCCCc1cc([N+](=O)[O-])c(O)c([N+](=O)[O-])c1` [DNNP (C9), 2,6dinitro-4-nonylphenol], for which the LD50 in data set [1] was determined as 50 mg/kg.

For `CCCCc1cc([N+](=O)[O-])c(O)c([N+](=O)[O-])c1` [DNBP (C4), 2,6dinitro-4-butylphenol], the 50% lethal dose (LD50) in data set [1] turned out to be 30 mg/kg.

On to `CCO` [Ethanol], for which the “ORAL LD50” value in data set [2] is 7,080 mg/kg. The same measure, in the same setting: as for `[Cl-].[Na+]` [Sodium Chloride], the figure is 3,000 mg/kg.
